In series [1] the test system is BCL11A, TRIM24, p53, p21, BAX, PUMA and MDM2. As to the kind of experiment: qRT-PCR of p53 suppressors and p53 target genes in MV4-11 cells. It is filed as cell-based, human. Conditions: 1 μM, 6 hours. The procedure:
A total RNA was isolated with RNeasy mini kit (Qiagen) and reverse transcribed with Reverse script kit (TOYOBO) to generate cDNA. Real-time quantitative polymerase chain reaction (PCR) was carried out with 7500 Real-Time PCR System (Applied Biosystems) according to the manufacturer's instructions. Results were normalized to GAPDH levels. Relative expression levels were calculated using the 2-ΔΔCt method.
In general terms: Quantitative PCR measures a nucleic acid by following its amplification.

In another series the test system is E-selectin. As to the kind of experiment: In vivo E-selectin expression in bone marrow endothelial cells. On the set-up: species or system mouse. Conditions: normal mice, 320 μg/kg, 6 times over 2 weeks, 24 hours after last administration. The procedure: Changes in expression levels of E-selectin in bone marrow endothelial cells by Chb-M′ administration were examined in vivo. To normal mice, DMSO (control) or Chb-M′ was administered 6 times over 2 weeks (320 μg/kg per administration). Twenty-four hours after the last administration (in a state in which Chb-M′ had been eliminated from the body of the mouse), the femur and tibia were harvested, from them bone marrow hematopoietic cells were removed, and endothelial cells were collected and subjected to FACS analysis. CD45 negative cells (bone marrow cells without bone marrow hematopoietic cells) were gated, and a ratio between CD31 positive cells (vascular endothelial marker-positive) and Lin-negative CD45-negative CD31-positive E-selectin-positive cells (E-selectin-positive bone marrow vascular endothelial cells) was analyzed by FACS.

Another series deals with p53 mutated cells. As to the kind of experiment: Concomitant use with p53 inducer MIRA-1 in p53 mutated cells. To be noted: compared with the PRIMA-1 experiments (synergistic inhibition). Type of series: cell-based, human. The method, then:
We examined the effect of concomitant use of the conjugates and a p53 inducer. […] KG1a and HL60 cells are null for p53 (p53null cell lines). MV4-11NR, Kasumi-1 and THP-1 cells harbor mutated p53 (p53mut(+) cell lines).
Further, the same experiments were performed using a p53 inducer MIRA-1 and the same results were obtained. Although the PI polyamide conjugates of the present invention may greatly reduce their potency in p53 mutated cells (cancer cells harboring mutated p53 or no p53), concomitant use with a p53 inducer enables suppression of such p53 mutated cells.

The next series has as its system PC-3 cells. The series is described as follows: PI-AnnexinV apoptosis staining, PC-3 cells. It is filed as cell-based, human. To be noted: PC-3, 3 μM, 48 hours and 72 hours. The method, then:
To PC-3 cells, 3 μM Chb-M′ was administered. After 48 hours and 72 hours, the percentage of apoptosis was analyzed by PI-AnnexinV apoptosis staining. As a control, DMSO was administered. As a result, the apoptosis rate was increased depending on the […] of Chb-M′ (FIG. 46).

A short description of another series: Half-life in mouse. Conditions: in vivo.
Series [2] relates to medulloblastoma cell line DAOY. To be noted: DAOY (SHH, TP53-mutated), 48 hours.
In the next series the test system is MKN45 cells. The series is described as follows: Xenograft gastric cancer mouse model (MKN45). It is filed as in vivo.
Series [3] concerns p53-mutated colon cancer cell line HT29. Conditions: HT29, 72 hours.
In series [4] the test system is BCL11A, TRIM24, p21, BAX, PUMA, MDM2, PARP, cleaved caspase-3. As to the kind of experiment: Immunoblotting of p53 pathway and apoptosis proteins in MV4-11 cells. Type of series: cell-based, human. Conditions: 1 μM, 24 hours. The method, then:
Cells were washed twice with ice cold phosphate-buffered saline (PBS) and harvested in protein lysis buffer [50 mM Tris (pH 7.4), 100 mM NaCl, 0.1 mM EDTA, 1 mM phenylmethylsulfonyl fluoride, 1 mM β-glycerophosphate, 2.5 mM sodium pyrophosphate, 1 mM Na3VO4, lx protease inhibitor (Roche) and PhosSTOP (Roche)]. Whole cell extracts were separated by SDS-polyacrylamide gel electrophoresis (SDS-PAGE) and electrotransferred onto polyvinylidene difluoride membranes. Membranes were probed with the following antibodies: anti-Ctip1 antibody (Abcam, ab19487), anti-TRIM24 antibody (Bethyl Laboratories, Inc), anti-RUNX1 antibody (A-2), anti-GAPDH (FL-335), anti-p21 (C-19), anti-Bax (N-20) antibodies (Santa Cruz Biotechnology, Inc.), anti-RUNX2, anti-RUNX3, anti-p53 antibodies (Cell Signaling Technology), anti-CBFβ antibody (FL-182, Santa Cruz Biotechnology, Inc.), anti-cleaved caspase-3 antibody (5A1E, Cell Signaling Technology), anti-PARP antibody (46D11, Cell Signaling Technology). For secondary antibodies, anti-rabbit IgG, or anti-mosue IgG HRP-linked antibodies (Cell Signaling Technology) were used. Blots were detected using Chemi-Lumi One Super (nacalai tesque, Inc.) and ChemiDoc™ XRS+ Imager (Bio-Rad Laboratories, Inc.), as recommended by the manufacturers. Protein levels were quantified with Image Lab Software (Bio-Rad Laboratories, Inc.).
Briefly, MV4-11 cells were treated with 1 μM Chb-M′ or Chb-50 for 24 hours. The treated cells were dissolved in the protein lysis buffer. Whole cell extracts were resolved by SDS-polyacrylamide gel electrophoresis (SDS-PAGE) and transferred onto polyvinylidene difluoride membranes. The membranes were probed with each antibody. Blots were detected and quantified. As a control, the cells treated with DMSO were used.
On the technique in general: A western blot detects proteins with antibodies after separation by electrophoresis.

Series [5] deals with AML cell lines expressing functional p53 (MV4-11, OCI-AML2, OCI-AML3 and MOLM-13). The series is described as follows: Growth inhibition assay of AML cell lines expressing functional p53. Type of series: cell-based, human. Conditions: 48 hours; at between nanomolar to low micromolar levels. The procedure:
Growth inhibition of some AML cell lines expressing functional p53 (MV4-11, OCI-AML2, OCI-AML3 and MOLM-13) by PI polyamide conjugates at different concentrations was tested. Briefly, the cells were placed at a density of 1×10^5 cells/mL. Different concentrations of a PI polyamide conjugate (Chb-M′ or Chb-50) were added to media, and the cells were incubated for 48 hours (n=3). The number of viable cells when the PI polyamide conjugate was not added was used as a control (DMSO control). Cell viability was assessed by counting the viable cells with Cell Count Reagent SF (Nacalai tesque, Inc.) and Infinite (registered trademark) 200 PRO multimode reader (TECAN) according to the manufacturer's instructions.

Each structure is given as a SMILES string. pIC50: −log10 of the molar value. Read-outs that look alike come from different tables or passages of the source.

What is called half-life is how long it takes for the measured level to halve. A higher half-life goes with slow loss. As a reminder, the pIC50 is the negative decadic logarithm of the IC50, by convention in mol/L. A higher pIC50 goes with a small IC50. `CN(C)CCCNC(=O)c1cc(NC(=O)c2cc(NC(=O)c3cc(NC(=O)c4cc(NC(=O)CCCNC(=O)c5nc(NC(=O)c6nc(NC(=O)c7cc(NC(=O)c8nc(NC(=O)CCNC(=O)CCCc9ccc(N(CCCl)CCCl)cc9)cn8C)cn7C)cn6C)cn5C)cn4C)cn3C)cn2C)cn1C` [Chb-M′]: in series [1], the “Gene expressions of p53 suppressors BCL11A and TRIM24” value is listed as “down-regulated”; the “mRNA expression level of p53” value is “unchanged”; the “mRNA expression levels of p21 and PUMA” value is “increased”. In addition, the “E-selectin expression levels in bone marrow endothelial cells” value in the series with E-selectin is recorded as “significantly decreased”. Also, in the series with p53 mutated cells, the “Effect of concomitant use with p53 inducer MIRA-1 on cell proliferation” value was “same results”. Further, in the series with PC-3 cells, the Apoptosis rate result is reported as “increased”. The same molecule had a half-life in the series “Half-life in mouse” of roughly 5 h. The pIC50 in series [2] was 6.09. Also, the “Tumor growth (tumor volume)” value with MKN45 cells (MKN45 xenograft, 320 μg/kg IV twice a week, to day 35) is “almost no change in tumor size”. In addition, in the series with MKN45 cells (day 21 after transplantation, after total 4 administrations), the “Size of gastric cancer (IVIS)” value was “decreased”. Moreover, the “Size of gastric cancer (IVIS)” value in the series with MKN45 cells (day 35 after transplantation, after total 8 administrations) was “slightly grew”. In series [3], this molecule had a pIC50 of 5.53. Moreover, in series [4], the “Cleaved form of PARP and cleaved caspase-3 (apoptosis)” value was “emergence”; the “Protein expression levels of p53 and downstream proteins (p21, BAX)” value is on record as “increased”; the “Protein expression levels of suppressors of p53 (BCL11A and TRIM24)” value is “reduced”. Besides, the “Growth inhibition of AML cells” value in series [5] is “highly effective”. In addition, the pIC50 in the series on NB4 (p53MT) (culture time 48 hours) is 6.45. This molecule also had a negative-log IC50 (pIC50) with NB4 (p53MT) (culture time 72 hours) of 7.35.

The values above are taken from patent publication US11235001B2, “RUNX inhibitor” (KYOTO UNIVERSITY, priority 2016, dated 2022).
